Data set [1] has as its target Serine/threonine-protein kinase mTOR (Homo sapiens, UniProt P42345). Briefly: Inhibition of mTOR (unknown origin) using ULight-4E-BP1 as substrate measured after 45 mins in presence of ATP by LANCE Ultra assay. On the technique in general: In TR-FRET formats the signal depends on donor and acceptor labels being close together.
Data set [2] deals with T1, Phosphatidylinositol 4,5-bisphosphate 3-kinase catalytic subunit delta isoform (Homo sapiens, UniProt O00329).
T1 sequence (O00329 whole entry): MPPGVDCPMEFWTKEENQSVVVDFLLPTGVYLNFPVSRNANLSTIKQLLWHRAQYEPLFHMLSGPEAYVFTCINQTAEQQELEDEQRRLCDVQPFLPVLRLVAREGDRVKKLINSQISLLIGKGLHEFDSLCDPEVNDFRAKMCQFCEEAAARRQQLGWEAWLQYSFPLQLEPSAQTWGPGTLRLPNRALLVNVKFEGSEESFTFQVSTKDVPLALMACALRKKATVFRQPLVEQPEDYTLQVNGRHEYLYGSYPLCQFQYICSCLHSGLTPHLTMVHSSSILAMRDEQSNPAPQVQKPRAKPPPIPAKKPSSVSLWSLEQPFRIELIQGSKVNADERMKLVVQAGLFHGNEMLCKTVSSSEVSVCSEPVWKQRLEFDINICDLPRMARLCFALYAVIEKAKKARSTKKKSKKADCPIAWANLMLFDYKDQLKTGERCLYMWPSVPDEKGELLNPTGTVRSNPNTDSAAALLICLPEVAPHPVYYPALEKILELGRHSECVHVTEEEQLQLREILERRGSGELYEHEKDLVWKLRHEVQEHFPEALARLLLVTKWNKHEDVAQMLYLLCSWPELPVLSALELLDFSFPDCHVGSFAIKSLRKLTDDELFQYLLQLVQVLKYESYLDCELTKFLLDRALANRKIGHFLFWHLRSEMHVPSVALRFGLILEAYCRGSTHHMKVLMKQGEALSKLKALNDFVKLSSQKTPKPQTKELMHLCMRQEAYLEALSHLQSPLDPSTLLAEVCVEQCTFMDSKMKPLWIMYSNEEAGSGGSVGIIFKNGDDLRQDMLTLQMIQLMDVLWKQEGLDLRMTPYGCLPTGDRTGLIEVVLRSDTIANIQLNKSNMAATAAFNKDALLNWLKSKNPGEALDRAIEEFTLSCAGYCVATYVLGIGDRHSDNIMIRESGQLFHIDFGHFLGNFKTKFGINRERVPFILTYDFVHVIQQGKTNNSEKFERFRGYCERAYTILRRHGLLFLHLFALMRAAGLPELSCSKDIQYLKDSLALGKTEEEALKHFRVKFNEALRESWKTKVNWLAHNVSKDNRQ
Briefly: Inhibition of PI3Kdelta (unknown origin) using PIP2 as substrate measured after 1 hr in presence of ATP by ADP-Glo reagent based assay. On the technique in general: ADP-Glo first removes unused ATP, then detects ADP through luciferase.

The nature of data set [3]: Metabolic stability in artificial gastrointestinal fluids.
The nature of data set [4]: Metabolic stability in rat liver microsomes assessed as compound remaining measured after 45 mins. The data set is classed as ADME, Microsome. Particulars: 0.75 h. Background: Microsomes from liver hold many membrane-bound enzymes, among them those of drug oxidation.
A further data set concerns HepG2. The experiment in a line: Antiproliferative activity against human HepG2 cells assessed as reduction in cell viability after 48 hrs by MTT assay. The data set is classed as functional, cell-based. As to conditions: HepG2, 48 h.
Another data set relates to MDA-MB-231. The experiment in a line: Antiproliferative activity against human MDA-MB-231 cells assessed as reduction in cell viability after 48 hrs by MTT assay. Type of data set: functional, cell-based. Particulars: MDA-MB-231, 48 h.
For data set [5], the system named is HCT-116. The experiment in a line: Antiproliferative activity against human HCT116 cells assessed as reduction in cell viability after 48 hrs by MTT assay. The data set is classed as functional, cell-based. Particulars: HCT-116, 48 h.
For a further data set, the system named is MCF7. The experiment in a line: Antiproliferative activity against human MCF-7 cells assessed as reduction in cell viability after 48 hrs by MTT assay. As to conditions: MCF7, 48 h. The data set is classed as functional, cell-based.
For the next data set, the system named is HeLa. Briefly: Antiproliferative activity against human HeLa cells assessed as reduction in cell viability after 48 hrs by MTT assay. The data set is classed as functional, cell-based.
In another data set the test system is CNE-2. Briefly: Antiproliferative activity against human CNE2 cells assessed as reduction in cell viability after 48 hrs by MTT assay. The data set is classed as functional, cell-based. As to conditions: CNE-2, 48 h.
Data set [6] concerns HCT-116. Briefly: Inhibition of PI3K/mTOR signaling in human HCT116 cells assessed as reduction in […] phosphorylation at 10 uM measured by Western blot analysis. The data set is classed as cell-based.
In data set [7] the test system is HCT-116. The experiment in a line: Inhibition of PI3K/mTOR signaling in human HCT116 cells assessed as reduction in AKT phosphorylation at 10 uM measured by Western blot analysis. Type of data set: cell-based.

Structures are written as SMILES. Calls of active or inactive are those of the source. No cut-off for these calls is given here.

A word on the IC50: it is the concentration that inhibits the measured activity by half. `CN1CCN(C(=O)c2ccc3nc(Nc4ccc(-c5nc(N6CCOCC6)nc(N6CCOCC6)n5)cc4)[nH]c3c2)CC1`: the IC50 came to 13.1 µM in [1] and 0.013 µM in [2].
As for `NC(=O)[C@@H]1CCCN1C(=O)c1ccc2nc(Nc3ccc(-c4nc(N5CCOCC5)nc(N5CCOCC5)n4)cc3)[nH]c2c1`, the IC50 in data set [1] amounted to 11.8 µM. Besides, the Stability entry in data set [3] is reported as “Stable”. Besides, the Stabilty result in data set [4] is reported as “Stable”.
On to `NC(=O)C1(N)CCN(C(=O)c2ccc3nc(Nc4ccc(-c5nc(N6CCOCC6)nc(N6CCOCC6)n5)cc4)[nH]c3c2)CC1`, for which the concentration for half-maximal inhibition (IC50) in [1] was 5.7 µM.
Consider `C[C@H](NC(=O)c1ccc2nc(Nc3ccc(-c4nc(N5CCOCC5)nc(N5CCOCC5)n4)cc3)[nH]c2c1)C(N)=O`, for which the half-inhibitory concentration (IC50) in data set [1] amounted to 5.8 µM; in the data set with HepG2, 7.9 µM; with MDA-MB-231, 1.9 µM; in the data set on HCT-116 [5], 0.7 µM; in the data set on MCF7, 0.4 µM; in the data set on HeLa, 1.3 µM. In addition, the values for the IC50 (in data set [2]; with CNE-2) were 0.005 µM and 12.3 µM, respectively.
Regarding `NC(=O)[C@H]1CCCN1C(=O)c1ccc2nc(Nc3ccc(-c4nc(N5CCOCC5)nc(N5CCOCC5)n4)cc3)[nH]c2c1`, the inhibition result in the data set on HCT-116 [6] and in the data set with HCT-116 [7] was “Active” throughout. Also, the IC50 in data set [1] turned out to be 5.6 µM; in the data set on HepG2 it was 23 µM; with MDA-MB-231, 5.5 µM; in the data set with HCT-116 [5], 0.9 µM; with MCF7 it was 0.3 µM; in the data set on HeLa it was 7.7 µM. The IC50 in data set [2] came to 0.0051 µM; in the data set with CNE-2, 7.3 µM. Also, in data set [3], the Stability entry is reported as “Stable”. For the same compound, in data set [4], the Stabilty result is on record as “Stable”.
For the compound `NC(=O)C1CCCN(C(=O)c2ccc3nc(Nc4ccc(-c5nc(N6CCOCC6)nc(N6CCOCC6)n5)cc4)[nH]c3c2)C1` (centres undefined), the IC50 in data set [1] is 10.2 µM.
The same measure, in the same setting: then `CS(=O)(=O)N1CCN(C(=O)c2ccc3nc(Nc4ccc(-c5nc(N6CCOCC6)nc(N6CCOCC6)n5)cc4)[nH]c3c2)CC1`, with 11.9 µM; and `CN(C)C1CCN(C(=O)c2ccc3nc(Nc4ccc(-c5nc(N6CCOCC6)nc(N6CCOCC6)n5)cc4)[nH]c3c2)CC1`, with 14.6 µM.
Turning to `NC(=O)C1CCCCN1C(=O)c1ccc2nc(Nc3ccc(-c4nc(N5CCOCC5)nc(N5CCOCC5)n4)cc3)[nH]c2c1` (centres undefined), the IC50 in [1] worked out at 8.5 µM.
On to `O=C(c1ccc2nc(Nc3ccc(-c4nc(N5CCOCC5)nc(N5CCOCC5)n4)cc3)[nH]c2c1)N1CCOCC1`, for which the inhibition result with HCT-116 [6] and with HCT-116 [7] was “Active” each time. Moreover, the 50% inhibitory concentration (IC50) in data set [1] amounted to 12.9 µM; in the data set with HepG2 it was 1.3 µM; in the data set on MDA-MB-231 it was 4.8 µM; in the data set with HCT-116 [5], 0.3 µM; in the data set on MCF7 it was 1.2 µM; in the data set with HeLa it was 2.4 µM. In addition, the values for the IC50 (in data set [2]; in the data set on CNE-2) were 0.044 µM and 6.9 µM, respectively. The Stability entry in data set [3] is recorded as “Stable”. Besides, the Stabilty result in [4] is given as “Unstable”.
For the compound `NC(=O)C1CCN(C(=O)c2ccc3nc(Nc4ccc(-c5nc(N6CCOCC6)nc(N6CCOCC6)n5)cc4)[nH]c3c2)CC1`, the IC50 in data set [1] worked out at 15.4 µM; in [2], 0.0023 µM.

These data come from ChEMBL document CHEMBL4765397, “Design, synthesis and bioevaluation of novel substituted triazines as potential dual PI3K/mTOR inhibitors” (Eur J Med Chem, 2020).
